Source: PMC6273767, “Comparative Studies of Interactions between Fluorodihydroquinazolin Derivatives and Human Serum Albumin with Fluorescence Spectroscopy” (Molecules, 2016)

Target: T1, human serum albumin (HSA) (Homo sapiens, UniProt P02768)
T1 construct: gene ALB; mature serum albumin, 585 residues (signal and propeptide removed)
Assay: tryptophan fluorescence quenching, modified Stern-Volmer
Format: binding
Conditions: 298 K, pH 7.4, 0.1 M Tris, 0.1 M NaCl, 1 µM HSA, excitation 280 nm; mainly site II (subdomain IIIA)
Source text: tryptophan fluorescence quenching, modified Stern-Volmer on human serum albumin (HSA)

T1 sequence (P02768 25-609): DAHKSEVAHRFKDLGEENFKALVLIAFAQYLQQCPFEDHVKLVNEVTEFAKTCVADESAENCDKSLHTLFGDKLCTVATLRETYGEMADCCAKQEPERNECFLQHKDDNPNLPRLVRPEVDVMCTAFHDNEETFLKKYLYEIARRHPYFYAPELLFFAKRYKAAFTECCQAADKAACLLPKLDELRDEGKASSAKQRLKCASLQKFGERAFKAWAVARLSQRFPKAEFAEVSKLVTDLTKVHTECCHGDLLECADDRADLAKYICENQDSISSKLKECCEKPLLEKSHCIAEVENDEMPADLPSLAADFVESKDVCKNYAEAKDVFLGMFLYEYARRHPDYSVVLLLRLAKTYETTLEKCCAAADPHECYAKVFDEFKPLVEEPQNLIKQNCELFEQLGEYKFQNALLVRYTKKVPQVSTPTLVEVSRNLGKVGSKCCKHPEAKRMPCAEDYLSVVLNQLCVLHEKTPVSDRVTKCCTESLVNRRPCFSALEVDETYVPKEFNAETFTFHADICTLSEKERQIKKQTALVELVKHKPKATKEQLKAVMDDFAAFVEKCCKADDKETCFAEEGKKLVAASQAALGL

SMILES | Ka (×10^4 M^-1)
CC(C)(C)CC(=O)N1c2ccc(Cl)cc2C(=O)N(N=Cc2ccccc2)C1c1ccccc1 (stereo not shown) [3a, 3-(Benzylideneamino)-6-chloro-1-(3,3-dimethylbutanoyl)-2-phenyl-2,3-dihydroquinazolin-4(1H)-one] | 2.16 × 10^4 M^−1
CC(C)(C)CC(=O)N1c2ccc(Cl)cc2C(=O)N(N=Cc2ccc(F)cc2)C1c1ccccc1 (stereo not shown) [3b, 6-Chloro-1-(3,3-dimethylbutanoyl)-3-(4-fluorobenzylideneamino)-2-phenyl-2,3-dihydroquinazolin-4(1H)-one] | 2.33 × 10^4 M^−1
CC(C)(C)CC(=O)N1c2ccc(Cl)cc2C(=O)N(N=Cc2cccc(F)c2)C1c1ccccc1 (stereo not shown) [3c, 6-Chloro-1-(3,3-dimethylbutanoyl)-3-(3-fluorobenzylideneamino)-2-phenyl-2,3-dihydroquinazolin-4(1H)-one] | 2.73 × 10^4 M^−1
CC(C)(C)CC(=O)N1c2ccc(Cl)cc2C(=O)N(N=Cc2ccccc2F)C1c1ccccc1 (stereo not shown) [3d, 6-Chloro-1-(3,3-dimethylbutanoyl)-3-(2-fluorobenzylideneamino)-2-phenyl-2,3-dihydroquinazolin-4(1H)-one] | 2.46 × 10^4 M^−1
